Biological target: T1, chymase derived from human skin (Homo sapiens, UniProt P23946)
T1 construct: chymase derived from human skin (Elastin Products Co.); purchased Elastin Products Co; host or cells: human skin (tissue-derived)
T1 sequence (P23946 22-247): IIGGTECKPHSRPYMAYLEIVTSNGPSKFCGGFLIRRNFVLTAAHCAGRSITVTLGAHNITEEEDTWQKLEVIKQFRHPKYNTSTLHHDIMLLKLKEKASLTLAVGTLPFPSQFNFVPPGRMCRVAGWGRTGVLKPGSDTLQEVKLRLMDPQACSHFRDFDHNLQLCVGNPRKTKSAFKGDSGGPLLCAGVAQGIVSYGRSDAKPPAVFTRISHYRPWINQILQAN
Assay: Inhibitory effect on chymase (in vitro test)
Format: biochemical
Details: 50 ng chymase, fluorescent synthetic substrate 0.1 mM, pH 8.0, 37° C. for 2 hours
Method: Inhibitory Effect on Chymase (In Vitro Test)
To 100 μl of a buffer solution A (50 mM Tris-hydrochloric acid (pH=8.0), 2M NaCl) were added 50 ng of chymase derived from human skin (Elastin Products Co.), a fluorescent synthetic substrate 0.1 mM succinyl-alanylprolyl-phenylalanine-methylcoumalylamide (Peptide Laboratories Co., Ltd.) and a test substance dissolved in dimethyl sulfoxide (DMSO), and the resulting mixture was incubated at 37° C. for 2 hours. Then, the intensity of fluorescence was measured at an excitation wavelength of 355 nm and a measuring wavelength of 460 nm by the use of a fluorescence plate reader (Fluoroscan (Dainippon Pharmaceutical Co., Ltd.)). A fluorescence intensity value obtained without adding the test substance was taken as 100% and a concentration at which a fluorescence intensity value calculated from a regression line became 50% was taken as IC50.

IC50: 2.1 nM
Compound: Cc1cn(Cc2cccc3ccccc23)/c(=N/S(=O)(=O)c2ccccc2C(=O)O)s1 [Example 1, 2-({[(2Z)-5-methyl-3-(1-naphthylmethyl)-1,3-thiazol-2(3H)-ylidene]amino}sulfonyl)benzoic acid]

Source: patent US20070105908A1, “Thiazolimine compound and oxazolimine compound” (DAINIPPON SUMITOMO PHARMA CO., LTD., priority 2003, published 2007)
